Laboratory results taken from patent publication US11628179B2, “Compounds for treating and preventing extracellular histone mediated pathologies” (priority 2017, dated 2023).
“And” between values parts separate entries of the source, which are not always exact repeats. Equal entries are not always repeated. Structures can show the parent of a compound that is named as a salt. Where two headings read alike, the source gives them in different places.

Tests used:
mice = experiment: In-vivo histone toxicity assay, organ damage markers at 4 hr; parameters: species or system mouse; details: 6.25, 25 and 100 mg/kg i.p. 10 min prior to histones 50 mg/kg i.v.; blood at 4 hr
human RBCs = experiment: Histone-induced RBC aggregation (flow cytometry autofluorescence, SEM); format: cell-based
[1] = mCBS vs CBS levels in phosphate buffered pH 7.5 clinical trial formulation stored at 2-8° C. (CAD); format: physicochemical; details: 2-8° C.
rat plasma proteins = experiment: Plasma protein binding by ultrafiltration, rat plasma; format: in vitro ADME; details: for Concentration of mCBS, 200 ng/mL Post-filter / Concentration of mCBS, 200 ng/mL Pre-filter / Concentration of mCBS, 2000 ng/mL Post-filter / Concentration of mCBS, 2000 ng/mL Pre-filter: replicates and Mean
Description: (§1) Protein binding was assessed by an ultrafiltration method using Centrifree® Ultrafiltration Devices with a 30000 dalton molecular weight cut-off point. Briefly, known concentrations of mCBS (as free base) were added to human, rat and dog plasma samples and incubated for 20 min at 37° C. The samples were then subject to ultrafiltration to separate protein bound and unbound drug.
(§2) mCBS stock solutions (10 μL) were spiked into solutions of each test matrix (490 μL) as listed below in Table 9 to have a final concentration of 200 ng/mL & 2000 ng/m L.
(§3) Spiked samples were then incubated at 37° C. for 20 minutes in a water bath. Aliquots of the samples from each test group (500 μL) were transferred to the ultrafiltration devices (n=3) and centrifuged for 20 minutes at 1000 g. After centrifugation, aliquots of the ultrafiltrates (50 μL) were transferred to separate test tubes for extraction, alongside duplicate aliquots of the samples prior to ultrafiltration from each test group.
(§4) For quantification of samples before ultrafiltration, samples were analysed against a freshly prepared standard curve in plasma.

[2] = Pharmacokinetics, intravenous bolus 20 mg/kg; format: in vivo, rat
Description: A total of ten blood samples were collected from three rats at time points ranging from pre-dose to 48 hours post-dose. The resulting blood samples were processed to plasma and subsequently analysed for the concentration of mCBS (free-base) using an LC-MS/MS based method. The plasma concentration versus time data were used for calculation of pharmacokinetic parameters.

C57BI/6 mice = experiment: EAE model of multiple sclerosis; format: in vivo, mouse; details: 50 mg/kg i.p. daily day 0-9, 35 day window
Description: EAE Model of Multiple Sclerosis. EAE was induced in 8-12 week old C57BI/6 mice by subcutaneous immunisation with 115 μg/mouse myelin oligodendrocyte glycoprotein (MOG35-55 genscript) in Complete Freund's Adjuvant (Sigma) on day 1. 300 ng/mouse Pertussis toxin (List Biological Laboratories) in PBS was injected intra peritoneal (i.p.) on days 0 and 2. 50 mg/kg mCBS in PBS or PBS alone (vehicle) was given i.p. daily for day 0-9. Mice were monitored daily for signs of disease and were scored on a scale of 0-5 based on physical manifestations of disease. Mice were scored as follows: 0, clinically normal; 1, flaccid tail and/or ataxia; 2, hind limb weakness; 3, hind limb paralysis; 4, hind and front limb paralysis; and 5, moribund.

Sprague-Dawley rats = test system: Sprague-Dawley rats
Description: The objective of these studies was to determine the toxicity of the test item, mCBS, when administered by continuous (24 hours/day) intravenous infusion through a surgically implanted catheter for 7 consecutive days to Sprague-Dawley rats.
The test and control item dose formulations of mCBS (in the form of the heptasodium salt mCBS.Na) were administered to groups of rats by continuous (24 hours/day) intravenous infusion for 7 consecutive days as described in the Table 14 below.
Parameters monitored during this study included mortality, clinical observations, body weights and food consumption. In addition, hematology, coagulation and clinical chemistry parameters were evaluated on Day 9. Blood samples were collected from the animals at timepoints relative to the start of the infusion for analysis of test item concentration in plasma. At termination (Day 9), all animals were euthanized and subjected to a gross necropsy examination. Organ weights were measured on selected organs and a selected list of tissues, including gross lesions, were retained and prepared for microscopic evaluation.

[3] = Non-specific binding to ultrafiltration device (phosphate buffer); format: in vitro ADME; details: for Concentration of mCBS, 200 ng/mL Post-filter / Concentration of mCBS, 200 ng/mL Pre-filter / Concentration of mCBS, 2000 ng/mL Post-filter / Concentration of mCBS, 2000 ng/mL Pre-filter: Phosphate Buffer pH 7.4, replicates and Mean
Description: as §1, §2, §3, §4

[4] = test system: human microvascular endothelial cells (HMECs)
human platelets = experiment: Histone-induced platelet aggregation; format: cell-based; details: compounds added prior to histones 150 μg/mL
whole blood coagulation = experiment: Inhibition of histone-induced perturbation of whole blood coagulation (ROTEM); format: biochemical, human; details: mCBS 200 μg/mL
From the text: In comparison, the same volume of water had no effect (FIG. 19).

[5] = IV bolus 20 mg/kg as sodium salt
[6] = animals treated with 1394 mg/kg/day (free base)
[7] = mCBS 100 μg/mL added prior to histones 400 μg/mL, 60 min

CO[C@@H]1O[C@H](COS(=O)(=O)O)[C@@H](O[C@@H]2O[C@H](COS(=O)(=O)O)[C@@H](OS(=O)(=O)O)[C@H](OS(=O)(=O)O)[C@H]2OS(=O)(=O)O)[C@H](OS(=O)(=O)O)[C@H]1OS(=O)(=O)O [mCBS, β-O-methyl cellobioside sulfate]
protection from histone-induced organ damage (LDH, ALT, creatinine) (mice): protects animals from histone-mediated injury
inhibition of histone-induced RBC aggregation (human RBCs; 0-200 μg/mL added prior to 400 μg/mL histones): inhibit histone-induced RBC aggregation in a dose dependent manner
reversal of histone-induced RBC aggregation (human RBCs; histones 400 μg/mL 55 min, then mCBS 5 min): near complete inhibition
prevention of histone-induced RBC aggregation (human RBCs; mCBS 200 μg/mL, histones 400 μg/mL 60 min): prevented
level in phosphate buffered pH 7.5 formulation ([1]; T0 (months)): 98.33 CAD %
level in phosphate buffered pH 7.5 formulation ([1]; T2): 98.39 CAD %
level in phosphate buffered pH 7.5 formulation ([1]; T3): 98.37 CAD %
level in phosphate buffered pH 7.5 formulation ([1]; T7): 98.54 CAD %
level in phosphate buffered pH 7.5 formulation ([1]; T10): 98.47 CAD %
level in phosphate buffered pH 7.5 formulation ([1]; T13): 98.44 CAD %
level in phosphate buffered pH 7.5 formulation ([1]; T19): 98.78 CAD %
stability when stored in aqueous buffered solution ([1]; over 18 months): high stability
Plasma protein binding (rat plasma proteins; 200 ng/mL): 19.4%
Plasma protein binding (rat plasma proteins; 2000 ng/mL): 19.8%
Concentration of mCBS, 200 ng/mL Post-filter (rat plasma proteins): 164 ng/mL and 177 ng/mL and 167 ng/mL
Concentration of mCBS, 200 ng/mL Pre-filter (rat plasma proteins): 205 ng/mL and 217 ng/mL
Concentration of mCBS, 2000 ng/mL Post-filter (rat plasma proteins): 1710 ng/mL and 1740 ng/mL and 1690 ng/mL
Concentration of mCBS, 2000 ng/mL Pre-filter (rat plasma proteins): 2090 ng/mL and 2180 ng/mL
Concentration of mCBS, 200 ng/mL Post-filter (rat plasma proteins; mean): 170 ng/mL
Concentration of mCBS, 200 ng/mL Pre-filter (rat plasma proteins; mean): 211 ng/mL
Concentration of mCBS, 2000 ng/mL Post-filter (rat plasma proteins; mean): 1713 ng/mL
Concentration of mCBS, 2000 ng/mL Pre-filter (rat plasma proteins; mean): 2135 ng/mL
AUCinf, mean (±SEM) [2, 5]: 35000 (±2940) ng·h/mL
AUClast, mean (±SEM) [2, 5]: 34300 (±2460) ng·h/mL
apparent elimination half-life (T½), mean (±SEM) [2, 5]: 77.5 (±54.5) h
mean residence time (MRT), mean (±SEM) [2, 5]: 5.58 (±3.99) h
total body clearance (Cl), mean (±SEM) [2, 5]: 0.472 (±0.0377) L/h/kg
volume of distribution (Vz), mean (±SEM) [2, 5]: 46.9 (±30.7) L/kg
concentration at time zero (C0), mean (±SEM) ([2]; IV bolus 20 mg/kg as sodium salt (16.3 mg/kg free base), plasma, n=3): 73400 (±8560) ng/mL
administered dose removed from the central compartment ([2]; IV bolus 20 mg/kg, first 4 hours): over 90%
protection from EAE development (C57BI/6 mice): substantial protection
AUC5-96 h and Css versus dose (Sprague-Dawley rats; 1394-5575 mg/kg/day): increased linearly with dose
plasma concentration versus time (Sprague-Dawley rats; 5 h to 96 h (or 168 h) infusion interval): steady state concentrations of mCBS were maintained
liver microscopic findings (Sprague-Dawley rats; [6]): accumulation of foamy Kupffer cells
lymph node microscopic findings (Sprague-Dawley rats; [6]): accumulation of foam macrophages
liver microscopic findings (Sprague-Dawley rats; animals treated with 2178 mg/kg/day (free base)): single cell necrosis
liver microscopic findings (Sprague-Dawley rats; animals treated with 2178 and 5575 mg/kg/day): focal or multiple focal necrosis
spleen microscopic findings (Sprague-Dawley rats; animals treated with ≤1394 mg/kg/day (so in the source), free base): accumulation of foamy macrophages associated with increased apoptotic cells in the red pulp
kidney microscopic findings (Sprague-Dawley rats; animals treated with ≤2178 mg/kg/day (so in the source), free base): proximal tubular vacuolation/rarefaction
urea, total protein and albumin (Sprague-Dawley rats; both sexes at 5575 mg/kg/day): increase in urea and decreases in total protein and albumin
white blood cell lines (Sprague-Dawley rats; both sexes at doses ≤3484 mg/kg/day (so in the source)): Increases in white blood cell lines
body weight gain and food consumption (Sprague-Dawley rats; both sexes, 5575 mg/kg/day (free base)): Decreases in body weight gain
No Observable Adverse Effect Level (NOAEL) (Sprague-Dawley rats; free base, corrected for potency and salt content, continuous IV infusion 7 days): 1394 mg/kg/day
red blood cell parameters and reticulocytes (Sprague-Dawley rats; males at 5575 mg/kg/day): decreases in red blood cell counts, hemoglobin, hematocrit, mean corpuscular volume and mean corpuscular hemoglobin concentration as well as increases in the reticulocytes
activated partial thromboplastin time (Sprague-Dawley rats; males at doses 2178 mg/kg/day, females at doses ≤3484 mg/kg/day (so in the source)): Increases in activated partial thromboplastin time
Liver enzymes (ALT, AST), cholesterol and triglycerides (Sprague-Dawley rats; males dosed at 5575 mg/kg/day): increased
Non-specific binding (NSB %) ([3]; 200 ng/mL): 0.50%
Non-specific binding (NSB %) ([3]; 2000 ng/mL): −1.97%
Concentration of mCBS, 200 ng/mL Post-filter [3]: 194 ng/mL and 202 ng/mL
Concentration of mCBS, 200 ng/mL Pre-filter [3]: 209 ng/mL and 195 ng/mL
Concentration of mCBS, 2000 ng/mL Post-filter [3]: 2190 ng/mL and 2160 ng/mL
Concentration of mCBS, 2000 ng/mL Pre-filter [3]: 1970 ng/mL
Concentration of mCBS, 200 ng/mL Post-filter ([3]; mean): 201 ng/mL
Concentration of mCBS, 200 ng/mL Pre-filter ([3]; mean): 202 ng/mL
Concentration of mCBS, 2000 ng/mL Post-filter ([3]; mean): 2070 ng/mL
Concentration of mCBS, 2000 ng/mL Pre-filter ([3]; mean): 2030 ng/mL
effect of increasing concentration on viable/dead cells ([4]; histones 400 μg/mL, increasing concentrations of mCBS): an increase in viable cells (Calcein-AM uptake) and a reduction in dead cells (PI uptake)
HMECs reverted from PI uptake to PI exclusion and calcein-AM uptake ([4]; histones 400 μg/ml 60 min, then mCBS 100 μg/ml for 10 min): approximately 30%
protection from histone-mediated injury ([4]; mCBS 25 μg/mL + histones 400 μg/mL): reduced level of protection
dead cells (PI uptake) [4, 7]: 20%
viable cells (calcein-AM) [4, 7]: 74%
histone-induced platelet aggregation (human platelets): significantly reduced
inhibition of histone-induced prolongation of clotting time (whole blood coagulation): able to inhibit the anticoagulant effects of both 400 and 800 μg/mL of histones
